Data: article PMC12456999, “Sulfonyl Homoserine Lactones Are Tunable Probes to Inhibit the Quorum Sensing Receptor RhlR and Reduce Swarming Motility in Pseudomonas aeruginosa” (ACS Infectious Diseases, 2025)
Read-outs that look alike come from different tables or passages of the source. Marks after values point to notes of the source that are not given here.

How the values were obtained:
RhlR [1] = target: T1, RhlR (Pseudomonas aeruginosa, UniProt P54292); experiment: E. coli (JLD271) RhlR reporter antagonism assay, in competition with BHL; format: cell-based; conditions: for activity profile in RhlR: E. coli RhlR reporter dose-response curves; for max. RhlR inhibition (%): E. coli RhlR reporter, BHL at 10 μM set to 0%, media control set to 100%
T1 construct: expressed in transfected cells; host or cells: E. coli JLD271 (K-12 ΔlacX74 sdiA271::Cam) carrying pJN105-R2 (RhlR expression) and pSC11-rhlI (rhlI'-lacZ reporter)
Description: (§1) To start, the sulfonyl HLs were evaluated for their ability to antagonize RhlR using a previously described E. coli strain (JLD271) harboring a RhlR expression plasmid and a rhlI reporter plasmid. This E. coli reporter produces RhlR, and protein activity in the presence of an added small molecule can be measured via the production of β-galactosidase as quantified via luminescence (see Methods). Compounds were screened in competition against RhlR’s native ligand, BHL (at its EC50 value in this strain, 10 μM), over a range of concentrations to generate antagonism dose–response curves (see Supporting Information) and calculate IC50 values (listed in Table ). A small set of compounds was also screened for RhlR agonism in the E. coli reporter; the agonism assay format was identical to the antagonism assay, except no BHL was added.
(§2) RhlR activity in E. coli strain JLD271 (ΔsdiA) was measured via a β-galactosidase reporter (rhI-lacZ) using the Promega Beta-Glo Assay System as previously described. RhlR activity in P. aeruginosa PA14 (ΔrhlIΔlasI) was measured via a GFP reporter (rhlA-gfp). […] See Supporting Information for both reporter protocols.
(§3) Supporting Information — Aguirre-Figueroa et al.
(§4) E. coli and P. aeruginosa RhlR reporter assay protocols.
(§5) E. coli RhlR reporter assay. RhlR activity in E. coli strain JLD271 (ΔsdiA) was measured via a β-galactosidase reporter using the Promega Beta-Glo® Assay System as previously described.10 A schematic of the reporter plasmids and assay protocol is shown in Scheme S1. Briefly, a single colony of E. coli JLD271 harboring the RhlR expression plasmid pJN105-R and the rhlI-lacZ transcriptional fusion reporter pSC11-R (Table S1) was grown in LB medium with 100 μg/mL ampicillin and 10 μg/mL gentamicin overnight (~16 h). The culture was diluted 1:10 in fresh LB medium and grown to an OD600 = 0.25 (0.23–0.28) (~0.5 h). Arabinose was added to a final concentration of 4 mg/mL to induce the expression of pJN105-R. Aliquots (2 μL) of compound DMSO stock solution or serial dilution were added to the inner wells (i.e., non-periphery rows) of a 96-well microtiter plate. To six inner wells, DMSO alone (vehicle) was added as a negative control. For agonism assays, BHL was added to six inner wells as a positive control (to achieve 1 mM). For antagonism assays, BHL was added to six inner wells as a positive control and to all of the other sample wells except for the vehicle control wells (to achieve 10 μM ). Subculture (198 μL) was then dispensed into each inner well. To the outer (periphery) wells, 200 μL of water were added to maintain humidity during incubation. Plates were then incubated for 4 h (shaking) at 37 °C.
Scheme S1. Schematic of E. coli reporter plasmids and assay. (A) Representation of plasmids used in the heterologous reporter system. (B) General reporter assay workflow. BioRender used in […]
After the incubation period, the OD600 of each well was measured using a plate reader. Cell dilution plates were prepared by transferring 10 μL from the incubated culture plate wells to a fresh 96-well plate and adding 90 μL of 18 MΩ water to each well. Next, 10 μL aliquots of diluted Beta-Glo® reagent (1:2 with 18 MΩ water) were added to each well of a white 384-well microtiter plate, followed by 10 μL of culture from each well of the dilution plate. The 384-well plate was incubated (without shaking; i.e., static) for 30 min at 30 °C. After incubation, luminescence of each well was measured using a plate reader. To determine levels of RhlR activity, raw luminescence was divided by OD600 to correct for growth variation and then normalized to the negative (0%) and positive (100%) control wells.
Dose-response reporter assay data for compounds in the E. coli RhlR reporter.
Dose-response curves for RhlR antagonism by compounds against 10 μM BHL using the E. coli JLD271 RhlR reporter are provided below. Compound names are indicated on the x-axis of each plot.
All assays performed in triplicate as at least three separate biological replicates. […]

RhlR [2] = target: T1, RhlR; experiment: E. coli (JLD271) RhlR reporter agonism assay (no BHL added); format: cell-based; conditions: for Emax: read-out: Max Activation (RhlR), E. coli JLD271 RhlR reporter, no BHL added, high concentrations
Description: as §1, §2, §3, §4
as §5, with “Subculture (198 μL) was then dispensed into each inner well. To the outer (periphery) wells, 200 μL of water were added to maintain humidity during incubation. Plates were then incubated for 4 h (shaking) at 37 °C.” left out
After the incubation period, the OD600 of each well was measured using a plate reader. […] After incubation, luminescence of each well was measured using a plate reader. To determine levels of RhlR activity, raw luminescence was divided by OD600 to correct for growth variation and then normalized to the negative (0%) and positive (100%) control wells. […]

RhlR [3] = target: T1, RhlR; conditions: P. aeruginosa RhlR reporter systems; reference number not given; cited from earlier work
RhlR [4] = target: T1, RhlR; experiment: P. aeruginosa RhlR reporter agonism assay; format: cell-based
Description: as §2, §3
P. aeruginosa RhlR reporter assay. RhlR activity in P. aeruginosa PA14 ΔrhlIΔlasI was measured via a GFP reporter. Briefly, a single colony of P. aeruginosa strain PA14 ΔrhlIΔlasI harboring the transcriptional fusion reporter pPROBE-GT rhlA-GFP (Table S1) was grown in LB medium with 40 μg/mL gentamicin overnight (~20 h). The culture was diluted 1:100 in fresh LB medium, without antibiotic, to an OD600 = 0.25 (0.22–0.30) (~1 h). Aliquots (2 μL) of compound DMSO stock solution or serial dilution were added to the inner wells (i.e., non-periphery rows) of a black, clear bottom 96-well plate. To 12 inner wells, DMSO alone (vehicle) was added to serve as controls (negative and positive). For the six negative control wells (no BHL), 198 μL of bacterial culture plus OdDHL (to achieve 10 μM) were added. […] After incubation, the OD600 and GFP production (excitation at 500 nm, emission at 540 nm) were read for each well using a plate reader. […]

other LuxR homologues = system: other LuxR homologues; parameters: method as in Kim et al.; conditions: ref Kim et al.; cited from earlier work

T1 sequence (P54292 whole entry): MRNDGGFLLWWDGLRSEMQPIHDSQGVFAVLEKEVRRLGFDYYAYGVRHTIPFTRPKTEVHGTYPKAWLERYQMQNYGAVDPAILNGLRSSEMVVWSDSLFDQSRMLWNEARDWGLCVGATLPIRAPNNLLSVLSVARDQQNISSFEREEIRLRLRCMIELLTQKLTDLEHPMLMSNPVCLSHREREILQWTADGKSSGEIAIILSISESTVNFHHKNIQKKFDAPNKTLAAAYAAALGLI

SMILES: O=C1OCC[C@@H]1NS(=O)(=O)Cc1ccc(C(F)(F)F)cc1 [Compound 15, 4-CF3 BnSHL]
- activity profile in RhlR (RhlR [1]): partial agonist
- max. RhlR inhibition (%) (RhlR [1]): 35 ^f %
- Emax (RhlR [2]): 38%

SMILES: O=C1OCC[C@@H]1NS(=O)(=O)c1cc(Cl)cc(Cl)c1 [Compound 50, 3,5-Cl-BSHL]
- activity profile in RhlR (RhlR [1]): partial agonist behavior
- Emax (RhlR [2]): 30%

SMILES: CCCC(=O)N[C@H]1CCOC1=O [BHL, N-butanoyl L-homoserine lactone, reference compound]
- EC50 (RhlR [3]): 5 to 10 µM
- EC50 (RhlR [4]): 4.47 µM
- EC50 (RhlR [2]): 10 µM
- IC50 (RhlR [2]): 8.73 µM

SMILES: O=C1OCC[C@@H]1NS(=O)(=O)c1ccccc1 [Compound 57]
- max. RhlR inhibition (%) (RhlR [1]): 93%
- IC50 (RhlR [1]; IC50, E. coli JLD271 RhlR reporter, against 10 μM BHL): 715 µM
- antagonism of other LuxR homologues (other LuxR homologues): ~50%
